{
  "source": "patent US7554012B2",
  "about": "“Plants and plant cells exhibiting resistance to AMPA, and methods for making the same” (priority 1998, dated 2009)",
  "key": {"PhnO enzyme": {"target": "PhnO enzyme (Escherichia coli, UniProt P16691, P2A)", "quoted_text": "The apparent Km of PhnO for the substrate acetyl-CoA was determined in similar experiments. After several attempts to obtain end point kinetics, it was determined that the turnover number was too low to be reliable at AMPA concentrations of about 30 mM and enzyme amounts of about 1-10 ng. An alternative approach was tried using tritium labeled acetyl-CoA. The specific activity of the label was about 40× higher than with [^14C], providing a gain in sensitivity that allowed for the determination of the apparent Km of PhnO for Acetyl-CoA. The [^3H]-acetyl-CoA (Amersham, Inc.) specific activity was 360 mCi/mg or 250 μCi/ml. […] This was accomplished by adjusting the concentration of KH2PO4 buffer (pH 5.5) to 40 mM with a flow rate of 1 ml per minute over an AX100 weak anion exchange column. Each sample was reacted with PhnO and 30 mM AMPA for five minutes at 37° C. and quenched with 100 mM NaOAc pH 4.4 in ethanol, then analyzed by HPLC. [^3H]-acetyl-CoA substrate ranged from 25 micromolar to 1.3 mM in each reaction along with about 5 ng PhnO, 50 mM Tris pH 7.5, 1 mM MnCl2, 1 mM MgCl2, and 30 mM AMPA. Samples were analyzed by HPLC to determine the amounts of N-[^3H]-acetyl-AMPA produced, and [^3H]-acetyl-CoA remaining."}, "purified PhnO protein": {"target": "T1, purified PhnO protein (Escherichia coli, UniProt P16691, P2A)", "T1 construct": "made in house; host or cells: E. coli JM101 carrying pMON15032 (recA promoter, nalidixic acid induction)", "test": "AMPA transacylase acyl-CoA acyl donor specificity, HPLC", "type": "biochemical, E. coli", "conditions": "for [^14C]-AMPA % Conversion: 5 minutes 30° C.; for % Activity: 1 mM acetyl-CoA = 100% reference", "method": "PhnO was purified from a one liter Luria Bertani broth culture of E. coli JM101 expressing a recombinant phnO gene from pMON15032 after nalidixic acid induction for three hours at 37° C. Cells were harvested by centrifugation and resuspended in 40 ml cold Tris buffer (0.1 M Tris-HCl pH 8) and placed on ice. The cell suspension was brought to 1 mM DTT and 0.5 mM PMSF. The suspension was lysed by 2 passages through a prechilled French pressure cell at 1,100 psi, centrifuged at 12,000 g (10,000 rpm in an Sorvall SA600 rotor) for 40 min at 4° C., then placed on ice. The cleared supernatants were poured into fresh 15 ml polypropylene tubes. The samples were split again into two equal portions and maintained at −80° C. until used further for purification of PhnO protein. 20 microliters of the soluble fraction was assayed for enzyme activity using the HPLC method described above in Example 2, except after terminating the assay with acid addition, the sample was stored at −80° C. A Sephacryl S200 column was prepared according to the manufacturers' instructions and equilibrated with a solution containing 20 mM Tris pH 8.0 and 0.5 mM MgCl2. The entire total soluble extract was layered over the top of the column bed after thawing on ice. Forty 9 ml fractions were collected from the column eluate, and thirty microliters of each fraction was analyzed by western blot using anti-PhnO antiserum after resolution on a 15% SDS-PAGE gel. Also, thirty microliters of each fraction was analyzed for AMPA acyl transferase activity using the method described in Example 2. […] These were represented by fractions 7 through 19 in this example, and were combined into a 100 ml volume, distributed into […] each containing 10 ml volumes, and stored at −80° C. for further use.\nAnion exchange chromatography was used to determine the elution pattern of PhnO away from other contaminating proteins that co-elute during the Sephacryl S200 fractionation. One tube from the combined PhnO positive fractions was thawed on ice and injected into a 5/5 Mono-Q column pre-equilibrated with buffers A (one liter of 20 mM Tris-HCl pH 8.0 Mili-Q distilled deionized water) and B (one liter of 20 mM Tris-HCl pH 8.0, 1 M NaCl). The sample containing PhnO active protein was injected into the column and one milliliter fractions were collected. The column was washed for five minutes with a flow rate of 1.8 ml per minute Buffer A after loading the PhnO containing sample. At five minutes, Buffer B was added to the flow volume at 0.5 ml per minute for four minutes. Buffer B was ramped up to 22% of the flow volume at 10 minutes, 30% at 12 minutes, 36% at 13 minutes, 41% at 14 minutes, 46% at 15 minutes, 74% at 16 minutes, and 100% at 16 minutes through 22 minutes, at which point Buffer B flow was terminated and Buffer A was reinitiated at 100% to equilibrate the column. Ten microliter volumes from individual fractions collected from the Mono-Q column were analyzed by western blot and for transacylase activity as described in Example 2. […] Samples of this purified PhnO protein were used to determine enzyme's acyl donor substrate specificity.\nEnzyme reactions were prepared as follows. […] A assay premix was prepared from which 45 microliters was used in each 100 microliter reaction. This 45 microliter premix sample consisted of 40 microliters distilled and deionized water, 2 microliters of 50 mM MgCl2, and 3 microliters of 1.3 mM [^14C]-AMPA (115,392 dpm per microliter). Reactions were initiated by mixing 40 microliters of 125 mM Tris-HCl pH 8.0, […] protein sample and 10 microliters acyl-CoA acyl donor compound in a microcentrifuge tube at room temperature. Each acyl-CoA acyl donor compound was prepared as a stock solution of 1 mM, 5 mM or 10 mM stocks. Each tube was then mixed with 45 microliters of the assay premix containing the [^14C]-AMPA […] substrate, mixed gently and transferred to a 30° C. water bath for 5 minutes. […]"}, "Tobacco callus": {"system": "Tobacco callus", "test": "Tobacco callus growth on plates with AMPA or N-acetyl AMPA", "type": "cell-based, Nicotiana tabacum cv. \"Samsun\"", "conditions": "plates with 0.1 mM or 0.4 mM, up to three weeks", "method": "Tobacco callus was generated from leaf pieces of wild type Nicotiana tabacum cv. “Samsun” tobacco on MS104 plates (MS salts 4.3 g/l, sucrose 30 g/l, B5 vitamins 500X 2 ml/l, NAA 0.1 mg/l, and Bacto Agar […]). Callus tissue was applied to plates with or without AMPA and with or without N-acetyl AMPA. Plates contained AMPA or N-acetyl AMPA at concentrations of 0.1 mM or 0.4 mM. Plates were incubated for up to three weeks and monitored periodically."}, "Wheat immature embryos": {"system": "Wheat immature embryos", "test": "Wheat embryo germination assay", "type": "in vivo", "conditions": "for Germinating root length / Germinating shoot length: ten days", "method": "Wheat immature embryos were exposed to different concentrations of AMPA and N-acetyl-AMPA in a wheat embryo germination assay. MMSO base media was prepared containing 40 grams per liter maltose, 2 grams per liter GELRITE™, MS salts, and vitamins. Salts, vitamins, and maltose were dissolved in 3500 ml water and the pH was adjusted to 5.8. 500 ml was dispensed into a separate bottle along with 1 gram of GELRITE™ and autoclaved for 17 minutes. After the medium had cooled to about 45° C., AMPA or N-acetyl-AMPA was added to a defined concentration. The mixture was poured into six square Sundae cups under sterile conditions and allowed to solidify.\nImmature wheat embryos were isolated from twenty day old seedlings (after anther formation) and inoculated into each MMSO media. Each Sundae cup contained nine immature embryo's. Three separate plates were used for each concentration of AMPA (0, 0.1, 0.15, 0.2, 0.25, 0.3, and 1.0 mM) or N-acetyl-AMPA (0, 0.1, 0.3, 1.0, and 3.0 mM). Sundae cups were incubated for ten days and the length of roots and shoots were determined and compared."}, "[1]": {"system": "AMPA acyltransferase activity", "test": "AMPA acyltransferase HPLC assay of bacterial lysates", "type": "biochemical", "conditions": "lysates of induced E. coli JM101 transformants"}, "[2]": {"conditions": "any concentration tested (0.1-3.0 mM)"}},
  "note": "Where two headings read alike, the source gives them in different places.",
  "data": [
    {"molecule": "CC(=O)SCCNC(=O)CCNC(=O)[C@H](O)C(C)(C)COP(=O)(O)OP(=O)(O)OC[C@H]1O[C@@H](n2cnc3c(N)ncnc32)[C@H](O)[C@@H]1OP(=O)(O)O", "note": "[Acetyl-CoA]", "values": [
      {"measurement": "Velocity", "setting": "PhnO enzyme; [Acetyl-CoA] 25 micromolar, 30 mM AMPA", "value": 34},
      {"measurement": "Velocity", "setting": "PhnO enzyme; [Acetyl-CoA] 50 micromolar", "value": 66},
      {"measurement": "Velocity", "setting": "PhnO enzyme; [Acetyl-CoA] 75 micromolar", "value": 94},
      {"measurement": "Velocity", "setting": "PhnO enzyme; [Acetyl-CoA] 100 micromolar", "value": 125},
      {"measurement": "Velocity", "setting": "PhnO enzyme; [Acetyl-CoA] 125 micromolar", "value": 150},
      {"measurement": "Velocity", "setting": "PhnO enzyme; [Acetyl-CoA] 150 micromolar", "value": 173},
      {"measurement": "Velocity", "setting": "PhnO enzyme; [Acetyl-CoA] 175 micromolar", "value": 193},
      {"measurement": "Velocity", "setting": "PhnO enzyme; [Acetyl-CoA] 200 micromolar", "value": 219},
      {"measurement": "Velocity", "setting": "PhnO enzyme; [Acetyl-CoA] 225 micromolar", "value": 240},
      {"measurement": "Velocity", "setting": "PhnO enzyme; [Acetyl-CoA] 250 micromolar", "value": 259},
      {"measurement": "Velocity", "setting": "PhnO enzyme; [Acetyl-CoA] 375 micromolar", "value": 339},
      {"measurement": "Velocity", "setting": "PhnO enzyme; [Acetyl-CoA] 390 micromolar", "value": 287},
      {"measurement": "Velocity", "setting": "PhnO enzyme; [Acetyl-CoA] 520 micromolar", "value": 331},
      {"measurement": "Velocity", "setting": "PhnO enzyme; [Acetyl-CoA] 650 micromolar", "value": 352},
      {"measurement": "Velocity", "setting": "PhnO enzyme; [Acetyl-CoA] 780 micromolar", "value": 372},
      {"measurement": "Velocity", "setting": "PhnO enzyme; [Acetyl-CoA] 910 micromolar", "value": 397},
      {"measurement": "Velocity", "setting": "PhnO enzyme; [Acetyl-CoA] 1040 micromolar", "value": 411},
      {"measurement": "Velocity", "setting": "PhnO enzyme; [Acetyl-CoA] 1170 micromolar", "value": 425},
      {"measurement": "Velocity", "setting": "PhnO enzyme; [Acetyl-CoA] 1300 micromolar", "value": 434},
      {"measurement": "apparent Vmax", "setting": "PhnO enzyme; acetyl-CoA substrate, Lineweaver-Burk plot", "value": "about 824 U/mg protein"},
      {"measurement": "Km", "setting": "PhnO enzyme; read-out: apparent Km of PhnO for acetyl-CoA as a substrate, 30 mM AMPA, Lineweaver-Burk plot of Table 9 data", "value": "375 to 390", "unit": "µM"},
      {"measurement": "[^14C]-AMPA % Conversion", "setting": "purified PhnO protein; acyl donor 0.1 mM", "value": 79.2, "unit": "%"},
      {"measurement": "% Activity", "setting": "purified PhnO protein; acyl donor 0.1 mM", "value": 79.2, "unit": "%"},
      {"measurement": "[^14C]-AMPA % Conversion", "setting": "purified PhnO protein; acyl donor 0.5 mM", "value": 98.7, "unit": "%"},
      {"measurement": "% Activity", "setting": "purified PhnO protein; acyl donor 0.5 mM", "value": 98.7, "unit": "%"},
      {"measurement": "[^14C]-AMPA % Conversion", "setting": "purified PhnO protein; acyl donor 1 mM", "value": 100.00, "unit": "%"},
      {"measurement": "% Activity", "setting": "purified PhnO protein; acyl donor 1 mM", "value": 100.00, "unit": "%"}
    ]},
    {"molecule": "N-acetyl-amino-methyl-phosphonate [N-acetyl AMPA]", "values": [
      {"measurement": "growth of tobacco callus tissue", "setting": "Tobacco callus", "value": "not inhibited"},
      {"measurement": "Germinating root length", "setting": "Wheat immature embryos; 0.10 mM", "value": "5.9 ± 1.4", "unit": "cm"},
      {"measurement": "Germinating shoot length", "setting": "Wheat immature embryos; 0.10 mM", "value": "12.0 ± 2.4", "unit": "cm"},
      {"measurement": "Germinating root length", "setting": "Wheat immature embryos; 0.30 mM", "value": "5.2 ± 1.2", "unit": "cm"},
      {"measurement": "Germinating shoot length", "setting": "Wheat immature embryos; 0.30 mM", "value": "11.7 ± 3.5", "unit": "cm"},
      {"measurement": "Germinating root length", "setting": "Wheat immature embryos; 1.00 mM", "value": "5.4 ± 1.5", "unit": "cm"},
      {"measurement": "Germinating shoot length", "setting": "Wheat immature embryos; 1.00 mM", "value": "12.2 ± 3.2", "unit": "cm"},
      {"measurement": "Germinating root length", "setting": "Wheat immature embryos; 3.00 mM", "value": "5.9 ± 1.6", "unit": "cm"},
      {"measurement": "Germinating shoot length", "setting": "Wheat immature embryos; 3.00 mM", "value": "11.2 ± 2.6", "unit": "cm"},
      {"measurement": "inhibition of root elongation", "setting": "Wheat immature embryos; [2]", "value": "only mildly inhibitory"},
      {"measurement": "inhibition of shoots", "setting": "Wheat immature embryos; [2]", "value": "not inhibitory"},
      {"measurement": "concentration with no significant effects to immature embryo germination", "setting": "Wheat immature embryos; in vivo", "value": "less than 3.0 mM"}
    ]},
    {"molecule": "CTP-PhnO peptide: chloroplast transit peptide fused to PhnO (SEQ ID NO:12) (protein) MASSMLSSATMVASPAQATMVAPFNGLKSSAAFPATRKANNDITSITSNGGRVNCMQVWPPIGKKKFETLSYLPDLTDSGGRVNCMQAMAACELRPATQYDTDAVYALICELKQAEFDHHAFRVGFNANLRDPNMRYHLALLDGEVVGMIGLHLQFHLHHVNWIGEIQELVVMPQARGLNVGSKLLAWAEEEARQAGAEMTELSTNVKRHDAHRFYLREGYEQSHFRFTKAL", "values": [
      {"measurement": "AMPA acyltransferase activity of cell lysates", "setting": "[1]", "value": "retain full enzymatic acyltransferase activity"}
    ]}
  ]
}
